Measured values: patent US6342487B1, “Compositions containing at least one farnesyl transferase inhibitor and at least one topoisomerase inhibitor and compositions containing at least one farnesyl transferase inhibitor and at least one taxoid” (Aventis Pharma Rorer S.A., priority 1998, dated 2002)

Columns and labels:
[1] = system: human colon tumor HCT116; test: Activity on the colon tumor HCT116 grafted by the subcutaneous route onto female nu/nu Swiss mice; format: in vivo
Protocol: This efficacy can be quantified, for example, by the net log 10 of the killed cells which is determined according to the following formula:
net log 10 of the killed cells=[T-C (days)−duration of the treatment (days)]/[3.32·Td]
in which T-C represents the delay in tumor growth which is the median time, in days, which the tumors of the treated group (T) and the tumors of the control group (C) took to reach a predetermined value (1 g for example) and Td represents the time, in days, necessary for the doubling of the volume of the tumor in the control animals [T. H. CORBETT et al., Cancer, 40, 2660-2680 (1977); F. M. SCHABEL et al., Cancer Drug Development, Part B, Methods in Cancer Research, 17, 3-51, New York, Academic Press Inc. (1979)].
A product is considered as very active if net log 10 of the killed cells is greater than or equal to 2.8. […] In such a case, the net log 10 of the killed cells has a positive value.
The combination, used at its own maximum tolerated dose, in which each of the constituents will be present at a dose which is generally lower than or equal to its maximum tolerated dose, will show a therapeutic synergy when the net log 10 of the killed cells is higher than the value of the net log 10 of the killed cells of the better constituent when it is administered alone.
The efficacy of the combinations on solid tumors can be determined experimentally in the following manner:
The animals subjected to the experiment, generally mice, are grafted bilaterally by the subcutaneous route with 30 to 60 mg of a tumor fragment on day 0. In the case of treatment of advanced tumors, the tumors are allowed to develop to the desired size, the animals having insufficiently developed tumors being eliminated. The selected animals are divided as a function of their tumor weight in a homogeneous manner between the treated and control groups, before the start of the treatments. Chemotherapy generally commences 12 to 14 days after the implantation of the tumor and the animals are observed every day. The different groups of animals are weighed every day until the maximum loss of weight is reached and then the groups are weighed at least once per week until the end of the test. The tumors are measured 2 to 3 times per week, with the aid of a slide calliper, according to two measurements in mm which are then converted into tumor weight according to the following formula: […]
The tumors are measured two or three times per week until the tumor reaches approximately 2 g or until the death of the animal if this occurs before the tumor reaches 2 g. An autopsy is carried out on the animals at the time of sacrifice.
The antitumor activity is determined as a function of the different parameters recorded.

[2] = Toxicity of the combination of product A with irinotecan; format: in vivo; settings: in combination with the topoisomerase inhibitor irinotecan
[3] = Table 1, tumor doubling time 3.4 days, 248 mg/kg per injection, days 14-25 (2x/d.)
[4] = Table 1, tumor doubling time 3.4 days, 400 mg/kg per injection, days 14-25 (2x/d.)
[5] = Table 1, tumor doubling time 3.4 days, 645 mg/kg per injection, days 14-25 (2x/d.)
[6] = Table 2, tumor doubling time 4.5 days, 645 mg/kg per injection, days 14-25 (2x/d.)
[7] = Table 1, tumor doubling time 3.4 days, doses 25 and 248 mg/kg per injection, days 14, 18, 22 (2x/d.) and 25-36 (2x/d.)
[8] = Table 1, tumor doubling time 3.4 days, doses 25 and 400 mg/kg per injection, days 14, 18, 22 (2x/d.) and 25-36 (2x/d.)
[9] = Table 1, tumor doubling time 3.4 days, doses 25 and 645 mg/kg per injection, days 14, 18, 22 (2x/d.) and 25-36 (2x/d.)
[10] = Table 1, tumor doubling time 3.4 days, doses 41 and 248 mg/kg per injection, days 14, 18, 22 (2x/d.) and 25-36 (2x/d.)
[11] = Table 1, tumor doubling time 3.4 days, doses 41 and 400 mg/kg per injection, days 14, 18, 22 (2x/d.) and 25-36 (2x/d.)
[12] = Table 1, tumor doubling time 3.4 days, doses 41 and 645 mg/kg per injection, days 14, 18, 22 (2x/d.) and 25-36 (2x/d.)
[13] = Table 2, tumor doubling time 4.5 days, 11.2 mg/kg per injection, days 14, 18, 22 (2x/d.)
[14] = Table 2, tumor doubling time 4.5 days, 18.7 mg/kg per injection, days 14, 18, 22 (2x/d.)
[15] = Table 2, tumor doubling time 4.5 days, 31.2 mg/kg per injection, days 14, 18, 22 (2x/d.)
[16] = Table 2, tumor doubling time 4.5 days, 52.0 mg/kg per injection, days 14, 18, 22 (2x/d.)

C=C(C(=O)N1C[C@@H]2[C@]3(c4ccc(C)cc4)CC[C@@H](c4ccccc43)[C@]2(C(=O)O)C1)c1ccccc1OC (racemic) [A, (3aRS,4SR,9SR,9aRS)-4,9-ethano-2-[2-(2-methoxyphenyl)propenoyl]-9-(4-methylphenyl)-2,3,3a,4,9,9a-hexahydro-1H-benzo[f]isoindole-3a-carboxylic acid]
(T-C)-(Duration of treatment) [1, 3]: -10.9 days | Long-term survivors on day 154 [1, 3]: 0/6 | net log10 of killed cells [1, 3]: −1.0 | (T-C)-(Duration of treatment) [1, 4]: -4.2 days | Long-term survivors on day 154 [1, 4]: 0/6 | net log10 of killed cells [1, 4]: −0.4 | (T-C)-(Duration of treatment) [1, 5]: -2.7 days | Long-term survivors on day 154 [1, 5]: 0/6 | net log10 of killed cells [1, 5]: −0.2 | (T-C)-(Duration of treatment) [1, 6]: 6.9 days | Long-term survivors on day 154 [1, 6]: 0/5 | net log10 of killed cells [1, 6]: 0.5 | toxicity in combination with irinotecan [2]: does not increase the toxicity of irinotecan

CCc1c2c(nc3ccc(OC(=O)N4CCC(N5CCCCC5)CC4)cc13)-c1cc3c(c(=O)n1C2)COC(=O)[C@]3(O)CC [Irinotecan, irinotecan]
(T-C)-(Duration of treatment) [1, 7]: 19.1 days | Long-term survivors on day 154 [1, 7]: 1/6 | net log10 of killed cells [1, 7]: 1.7 | Long-term survivors on day 154 [1, 8]: 2/7 | net log10 of killed cells [1, 8]: 3.3 | Long-term survivors on day 154 [1, 9]: 3/8 | net log10 of killed cells [1, 9]: 3.6 | Long-term survivors on day 154 [1, 10]: 4/8 | net log10 of killed cells [1, 10]: 3.3 | (T-C)-(Duration of treatment) [1, 11]: 55.9 days | Long-term survivors on day 154 [1, 11]: 4/7 | net log10 of killed cells [1, 11]: 5.0 | Long-term survivors on day 154 [1, 12]: 4/8 | net log10 of killed cells [1, 12]: 3.4 | (T-C)-(Duration of treatment) [1, 13]: 8.3 days | net log10 of killed cells [1, 13]: 0.6 | Long-term survivors on day 154 [1, 14]: 0/5 | net log10 of killed cells [1, 14]: 1.1 | Long-term survivors on day 154 [1, 15]: 0/5 | net log10 of killed cells [1, 15]: 1.0 | (T-C)-(Duration of treatment) [1, 16]: 19.5 days | Long-term survivors on day 154 [1, 16]: 0/5 | net log10 of killed cells [1, 16]: 1.3 | (T-C)-(Duration of treatment) ([1]; mouse, in vivo, 86 mg/kg): toxic
